Source: ChEMBL document CHEMBL5380843 (J Med Chem, 2023)

Legend:
[1] = Selectivity index, ratio of CC50 for cytotoxicity against human MT4 cells to EC50 for antiviral activity against wild type HIV-1 IIIB infected in human MT4 cells; format: toxicity, cell-based; conditions: read-out: Ratio CC50/EC50
[2] = Cytotoxicity against human MT4 cells assessed as reduction in cell viability incubated for 5 days by MTT assay; format: toxicity, cell-based; conditions: time 5 day
[3] = tested on: Human immunodeficiency virus 1; assay: Antiviral activity against wild type HIV-1 IIIB infected in human MT4 cells assessed as protection against virus-induced cytopathic effect incubated for 5 days by MTT assay; format: functional, organism-based; conditions: Human immunodeficiency virus 1, IIIB, MT4, 120 h
[4] = tested on: Human immunodeficiency virus 1; assay: Antiviral activity against wild type HIV-1 IIIB harboring reverse transcriptase […] mutant infected in human MT4 cells assessed as protection against virus-induced cytopathic effect incubated for 5 days by MTT assay; format: functional, organism-based; conditions: Human immunodeficiency virus 1, IIIB, MT4, 120 h
[5] = Resistant factor, ratio of EC50 for antiviral activity against HIV-1 IIIB harboring reverse transcriptase […] mutant to EC50 for antiviral activity against wild type HIV-1 IIIB; format: functional
[6] = tested on: Human immunodeficiency virus 1; assay: Antiviral activity against wild type HIV-1 IIIB harboring reverse transcriptase K103N mutant infected in human MT4 cells assessed as protection against virus-induced cytopathic effect incubated for 5 days by MTT assay; format: functional, organism-based; conditions: Human immunodeficiency virus 1, IIIB, MT4, 120 h
[7] = Resistant factor, ratio of EC50 for antiviral activity against HIV-1 IIIB harboring reverse transcriptase K103N mutant to EC50 for antiviral activity against wild type HIV-1 IIIB; format: functional
[8] = tested on: Human immunodeficiency virus 1; assay: Antiviral activity against wild type HIV-1 IIIB harboring reverse transcriptase Y181C mutant infected in human MT4 cells assessed as protection against virus-induced cytopathic effect incubated for 5 days by MTT assay; format: functional, organism-based; conditions: Human immunodeficiency virus 1, IIIB, MT4, 120 h
[9] = Resistant factor, ratio of EC50 for antiviral activity against HIV-1 IIIB harboring reverse transcriptase Y181C mutant to EC50 for antiviral activity against wild type HIV-1 IIIB; format: functional
[10] = tested on: Human immunodeficiency virus 1; assay: Antiviral activity against wild type HIV-1 IIIB harboring reverse transcriptase Y188L mutant infected in human MT4 cells assessed as protection against virus-induced cytopathic effect incubated for 5 days by MTT assay; format: functional, organism-based; conditions: Human immunodeficiency virus 1, IIIB, MT4, 120 h
[11] = Resistant factor, ratio of EC50 for antiviral activity against HIV-1 IIIB harboring reverse transcriptase Y188L mutant to EC50 for antiviral activity against wild type HIV-1 IIIB; format: functional
[12] = tested on: Human immunodeficiency virus 1; assay: Antiviral activity against wild type HIV-1 IIIB harboring reverse transcriptase E138K mutant infected in human MT4 cells assessed as protection against virus-induced cytopathic effect incubated for 5 days by MTT assay; format: functional, organism-based; conditions: Human immunodeficiency virus 1, IIIB, MT4, 120 h
[13] = Resistant factor, ratio of EC50 for antiviral activity against HIV-1 IIIB harboring reverse transcriptase E138K mutant to EC50 for antiviral activity against wild type HIV-1 IIIB; format: functional
[14] = target: Human immunodeficiency virus type 1 reverse transcriptase (Human immunodeficiency virus 1, UniProt Q72547); assay: Inhibition of recombinant wild type HIV-1 reverse transcriptase using DNA/RNA as substrate incubated for 40 mins by Pico-green dye based spectrofluorometric analysis

Compound	selectivity ratio [1]	CC50 at 120 h [2] [nM]	EC50 [3] [nM]	EC50 [4] [nM]	Ratio EC50 [5]	EC50 [6] [nM]	Ratio EC50 [7]	EC50 [8] [nM]	Ratio EC50 [9]	EC50 [10] [nM]	Ratio EC50 [11]	EC50 [12] [nM]	Ratio EC50 [13]	IC50 [14] [nM]
N#Cc1ccc(Nc2nccc(Oc3ccc4cc(C#N)ccc4c3Br)n2)cc1	181000	283000	–	–	–	–	–	–	–	–	–	–	–	–
Cc1cc(-c2ccc(C#N)cc2)cc(C)c1Oc1nc(Nc2ccc(C#N)cc2)ncc1C(=O)NC(C)C	1750	64700	37	144	3.9	82	2.2	334	9	563	15	71	1.9	199
Cc1cc(-c2ccc(C#N)cc2)cc(C)c1Oc1nc(Nc2ccc(C#N)cc2)ncc1C(=O)NC1CC1	10600	116000	11	51	4.6	32	2.9	157	14	209	19	31	2.8	111
N#Cc1ccc(Nc2ncc(C(N)=O)c(Oc3ccc(-c4ccc(C#N)cc4)cc3Cl)n2)cc1	> 2650	> 270000	102	76000	746	5530	54	129000	1261	219000	2150	821	8	28
Cc1cc(-c2ccc(C#N)cc2)cc(C)c1Oc1nc(Nc2ccc(C#N)cc2)ncc1C(=O)NCC1CC1	2060	210000	102	872	8.5	445	4.4	1160	11	1900	19	248	2.4	294
Cc1cc(-c2ccc(C#N)cc2)cc(C)c1Oc1nc(Nc2ccc(C#N)cc2)ncc1C(=O)NC1CCCC1	> 1630	> 236000	145	1780	12	960	6.6	3350	23	4650	32	573	4	329
CCNC(=O)c1cnc(Nc2ccc(C#N)cc2)nc1Oc1c(C)cc(-c2ccc(C#N)cc2)cc1C	22500	151000	6	25	3.7	13	1.9	68	10	95	14	28	4.2	135
CNC(=O)c1cnc(Nc2ccc(C#N)cc2)nc1Oc1c(C)cc(-c2ccc(C#N)cc2)cc1C	> 12700	> 42200	3	9	2.7	5	1.5	27	8.2	34	10	6	1.8	56
Cc1cc(-c2ccc(C#N)cc2)cc(C)c1Oc1nc(Nc2ccc(C#N)cc2)ncc1C(=O)NCCCO	5590	31400	5	15	2.7	9	1.6	51	9.1	50	8.9	–	0.9	71
Cc1cc(-c2ccc(C#N)cc2)ccc1Oc1nc(Nc2ccc(C#N)cc2)ncc1C(N)=O	> 9000	> 280000	31	994	32	94	3	4340	140	7120	230	115	3.7	19
